# Experimental data from ChEMBL document CHEMBL1138948, “Design, synthesis, and evaluation of proline and pyrrolidine based melanocortin receptor agonists. A conformationally restricted dipeptide mimic approach” (J Med Chem, 2006).
# How the values were obtained:
# [1] = Absorptive permeability across Caco-2 cell membrane; type: ADME, cell-based; settings: human, read-out: permeability (converted)
# [2] = Exsorptive permeability across Caco-2 cell membrane; type: ADME, cell-based; settings: human, read-out: permeability (converted)
# [3] = target: T1, Melanocyte-stimulating hormone receptor (Homo sapiens, UniProt Q01726); experiment: Displacement of europium labeled NDP-alpha-MSH from human MC1R expressed in HEK293 cells; type: cell-based
# T1 sequence (Q01726 whole entry): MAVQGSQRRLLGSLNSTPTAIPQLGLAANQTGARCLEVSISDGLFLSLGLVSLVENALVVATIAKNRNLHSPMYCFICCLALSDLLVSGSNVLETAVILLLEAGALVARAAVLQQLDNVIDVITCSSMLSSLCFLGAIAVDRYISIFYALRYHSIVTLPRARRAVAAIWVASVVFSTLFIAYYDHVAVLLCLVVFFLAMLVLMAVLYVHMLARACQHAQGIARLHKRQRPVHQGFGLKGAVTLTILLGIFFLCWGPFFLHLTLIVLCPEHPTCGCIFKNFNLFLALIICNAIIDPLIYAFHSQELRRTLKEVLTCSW
# Melanocortin receptor 3 [4] = target: T2, Melanocortin receptor 3 (Homo sapiens, UniProt P41968); experiment: Displacement of europium labeled NDP-alpha-MSH from human MC3R expressed in HEK293 cells; type: cell-based
# T2 sequence (P41968 whole entry): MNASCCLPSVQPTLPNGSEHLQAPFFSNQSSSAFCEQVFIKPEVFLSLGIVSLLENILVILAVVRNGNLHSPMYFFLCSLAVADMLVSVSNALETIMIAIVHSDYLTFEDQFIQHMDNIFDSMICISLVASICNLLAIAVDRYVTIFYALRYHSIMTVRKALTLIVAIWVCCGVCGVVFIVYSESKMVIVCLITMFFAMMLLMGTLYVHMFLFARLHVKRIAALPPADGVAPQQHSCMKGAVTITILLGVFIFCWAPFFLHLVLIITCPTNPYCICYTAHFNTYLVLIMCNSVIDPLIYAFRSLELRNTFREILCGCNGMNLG
# [5] = target: Melanocortin receptor (M1 and M4) (Homo sapiens) (UniProt P32245+Q01726); experiment: Selectivity for human MC4R over human MC1R; type: protein assay
# Melanocortin receptor 4 [6] = target: T3, Melanocortin receptor 4 (Homo sapiens, UniProt P32245); experiment: Displacement of europium labeled NDP-alpha-MSH from human MC4R expressed in HEK293 cells; type: cell-based
# T3 sequence (P32245 whole entry): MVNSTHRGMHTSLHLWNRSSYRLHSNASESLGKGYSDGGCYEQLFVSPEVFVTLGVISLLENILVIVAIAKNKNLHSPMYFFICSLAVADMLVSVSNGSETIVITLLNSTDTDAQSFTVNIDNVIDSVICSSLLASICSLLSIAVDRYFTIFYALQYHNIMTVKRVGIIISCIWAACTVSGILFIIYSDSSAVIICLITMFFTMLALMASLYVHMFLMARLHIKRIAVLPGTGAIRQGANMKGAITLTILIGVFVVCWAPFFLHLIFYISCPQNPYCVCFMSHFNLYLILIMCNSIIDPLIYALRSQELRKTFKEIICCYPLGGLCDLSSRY
# [7] = target: T1, Melanocyte-stimulating hormone receptor; experiment: Agonist activity at human MC1R transfected in HEK293 cells; type: functional, cell-based
# Melanocortin receptor 3 [8] = target: T2, Melanocortin receptor 3; experiment: Agonist activity at human MC3R transfected in HEK293 cells; type: functional, cell-based
# Melanocortin receptor 4 [9] = target: T3, Melanocortin receptor 4; experiment: Agonist activity at human MC4R transfected in HEK293 cells; type: functional, cell-based
Structure (SMILES),Papp A→B [1] [×10⁻⁶ cm/s],Papp [2] [×10⁻⁶ cm/s],Ki [3] [nM],Ki (Melanocortin receptor 3 [4]) [nM],Selectivity ratio [5],Ki (Melanocortin receptor 4 [6]) [nM],EC50 [7] [nM],EC50 (Melanocortin receptor 3 [8]) [nM],EC50 (Melanocortin receptor 4 [9]) [nM]
OC[C@@H](O)[C@@H](O)[C@H](O)[C@H](O)CO [MANNITOL],2.17,1.83,–,–,–,–,–,–,–
CC(=O)N[C@@H](Cc1c[nH]cn1)C(=O)N[C@H](Cc1ccccc1)C(=O)N1C[C@@H](OCc2ccc3ccccc3c2)C[C@H]1CCCN=C(N)N,–,–,2970,1960,> 150,14,1220,1130,9
CC(=O)N[C@@H](Cc1cnc[nH]1)C(=O)N[C@H](Cc1ccccc1)C(=O)N1C[C@H](OCc2ccc3ccccc3c2)C[C@@H]1C(=O)NCCN=C(N)N,1,0.5,13,824,–,1580,3,340,152
CC(=O)N[C@@H](Cc1ccc(O)cc1)C(=O)N[C@H](Cc1ccccc1)C(=O)N1C[C@H](OCc2ccc3ccccc3c2)C[C@@H]1CCCN=C(N)N,–,–,85,42,4,21,88,85,14
CC(=O)N[C@@H](Cc1ccc(O)cc1)C(=O)N[C@H](Cc1ccccc1)C(=O)N1C[C@H](OCc2ccc3ccccc3c2)C[C@@H]1C(=O)NCCN=C(N)N,–,–,2050,501,4,559,1340,1220,254
N=C(N)NCCNC(=O)[C@H]1C[C@@H](OCc2ccc3ccccc3c2)CN1C(=O)[C@@H](Cc1ccccc1)NC(=O)[C@@H]1Cc2ccccc2CN1,–,–,1620,4390,4,411,539,825,97
NC(N)=NCCC[C@H]1C[C@@H](OCc2ccc3ccccc3c2)CN1C(=O)[C@@H](Cc1ccccc1)NC(=O)[C@@H]1CCCN1,–,–,55,219,–,46,52,593,17
CC(=O)N[C@@H](Cc1ccc(O)cc1)C(=O)N[C@H](Cc1ccccc1)C(=O)N1C[C@@H](OCc2ccc3ccccc3c2)C[C@@H]1CCCN=C(N)N,–,–,138,425,–,248,71,68,39
CC(=O)N[C@@H](Cc1ccccc1)C(=O)N[C@H](Cc1ccccc1)C(=O)N1C[C@H](OCc2ccc3ccccc3c2)C[C@@H]1CCCN=C(N)N,–,–,182,154,–,59,201,313,20
CC(=O)N[C@H](Cc1ccccc1)C(=O)N1C[C@H](OCc2ccc3ccccc3c2)C[C@@H]1CCCN=C(N)N,7.5,6.17,463,289,–,90,232,1380,317
